Values after ≈ are worked out from the molar mass of the structure shown. Like-named read-outs stand apart in the source and are kept apart here.
What was measured:
Type in all cases: cell-based
P. aeruginosa = experiment: MIC by two-fold serial agar dilution, quinolone-resistant strains; settings: Pseudomonas aeruginosa
Streptococcus pneumoniae [1] = experiment: MIC by NCCLS broth microdilution, 1100 Japanese clinical isolates 1997-1998; settings: for MIC50 / MIC90 / MIC: Streptococcus pneumoniae; for MIC50: read-out: MIC50; for MIC90: read-out: MIC90; for MIC: Streptococcus pneumoniae quinolone resistant
Enterobacter cloacae = experiment: as above; settings: Enterobacter cloacae (n=40)
Salmonella spp. [2] = experiment: as above; settings: Salmonella spp. (n=29)
[3] = tested on: Mycobacterium tuberculosis (MTB); experiment: MIC by proportions method (NCCLS M24-T, 1995), 82 MTB strains; settings: Mycobacterium tuberculosis; 82 MTB strains
Salmonella spp. [4] = experiment: MIC by agar dilution (NCCLS M7-A4), 288 enteropathogenic isolates, eight quinolones; settings: for MIC: ciprofloxacin MIC ≥[…], read-out: MIC
Haemophilus influenzae = experiment: MIC by broth microdilution (NCCLS), dried MicroScan panels, clinical isolates 1998-1999; settings: for MIC90: Haemophilus influenzae
Pseudomonas aeruginosa = experiment: MIC by agar dilution (NCCLS), 322 nosocomial Gram negative isolates, Athens 1998; settings: n = 57 isolates
Enterobacter spp. = experiment: as above; settings: Enterobacter, n = 57 isolates
Streptococcus pneumoniae [5] = experiment: MIC by E-test (broth microdilution for gemifloxacin), 107 pneumococcal carrier isolates, Athens 1998; settings: E-test; for MIC Range: in µg/mL (unit assumed); for MIC50 / MIC90: Streptococcus pneumoniae; for MIC50: read-out: MIC50; for MIC90: read-out: MIC90
Method: Susceptibility testing was performed by agar dilution or epsilometer method (E-test), as recommended by the NCCLS. […] The susceptibility profiles of the strains were assessed using the Epsilometer method (E-test). The isolates were subdivided into two groups according to their penicillin susceptibility patterns (penicillin-susceptible and penicillin-intermediate.

Enterococcus faecium = experiment: MIC by agar macrodilution (NCCLS), 373 Gram positive isolates, Athens 1998
Shigella spp. = experiment: MIC by agar dilution (NCCLS M7-A4), 288 enteropathogenic isolates, gemifloxacin and 15 other antimicrobials; settings: Shigella spp. N= 21
Summary of the method: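 Agar dilution with ~10^4 cfu/spot inoculum; plates incubated aerobically at 35 °C for 24 h, except C. jejuni, held microaerophilically for 48 h. MIC taken as lowest antibiotic concentration with no visible growth.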

[6] = Streptococcus pneumoniae amoxicillin resistant (n=40)
[7] = Streptococcus pneumoniae amoxicillin susceptible (n=35)
[8] = Streptococcus pneumoniae erythromycin resistant (n=34)
[9] = Streptococcus pneumoniae erythromycin susceptible (n=11)
[10] = Haemophilus influenzae (300 isolates)
[11] = Penicillin-intermediate S. pneumoniae (n = 24)
[12] = Penicillin-susceptible S. pneumoniae (n = 107)

NC1CCN(c2nc3c(cc2F)c(=O)c(C(=O)O)cn3-c2ccc(F)cc2F)C1 (centres unmarked) [Tosufloxacin, tosufloxacin]
MIC (P. aeruginosa): 1 µg/mL (≈ 2.47 µM)
MIC Range (Streptococcus pneumoniae [1]; [6]): 0.063 to 4 µg/mL
MIC Range (Streptococcus pneumoniae [1]; [7]): 0.125 to 2 µg/mL
MIC Range (Streptococcus pneumoniae [1]; [8]): 0.063 to 4 µg/mL
MIC Range (Streptococcus pneumoniae [1]; [9]): 0.125 to 0.25 µg/mL
MIC50 (Streptococcus pneumoniae [1]; [6]): 0.25 µg/mL (≈ 0.618 µM)
MIC90 (Streptococcus pneumoniae [1]; [6]): 0.25 µg/mL (≈ 0.618 µM)
MIC50 (Streptococcus pneumoniae [1]; [7]): 0.25 µg/mL (≈ 0.618 µM)
MIC90 (Streptococcus pneumoniae [1]; [7]): 0.5 µg/mL (≈ 1.24 µM)
MIC50 (Streptococcus pneumoniae [1]; [8]): 0.25 µg/mL (≈ 0.618 µM)
MIC90 (Streptococcus pneumoniae [1]; [8]): 0.25 µg/mL (≈ 0.618 µM)
MIC50 (Streptococcus pneumoniae [1]; [9]): 0.25 µg/mL (≈ 0.618 µM)
MIC90 (Streptococcus pneumoniae [1]; [9]): 0.25 µg/mL (≈ 0.618 µM)
MIC (Streptococcus pneumoniae [1]; strain TMS1): 0.5 µg/mL (≈ 1.24 µM)
MIC (Streptococcus pneumoniae [1]; strain TMS2): 8 µg/mL (≈ 19.8 µM)
MIC50 (Enterobacter cloacae): 0.032 µg/mL (≈ 0.0791 µM)
MIC90 (Enterobacter cloacae): 1 µg/mL (≈ 2.47 µM)
MIC Range (Enterobacter cloacae): ≤0.008 to 2 µg/mL
MIC50 (Salmonella spp. [2]): 0.032 µg/mL (≈ 0.0791 µM)
MIC90 (Salmonella spp. [2]): 0.063 µg/mL (≈ 0.156 µM)
MIC Range (Salmonella spp. [2]): 0.016 to 0.063 µg/mL

Cc1c(F)c(N2CCNC(C)C2)cc2c1c(=O)c(C(=O)O)cn2C1CC1 (centres unmarked) [Grepafloxacin, grepafloxacin]
MIC90 [3]: 2 µg/mL (≈ 5.56 µM)
MIC (Salmonella spp. [4]; S. hadar (n = 2)): 1 µg/mL (≈ 2.78 µM)
MIC (Salmonella spp. [4]; S. newport (n = 1)): 1 µg/mL (≈ 2.78 µM)
MIC (Salmonella spp. [4]; S. virchow (n = 2)): 0.25 µg/mL (≈ 0.696 µM)
% Susceptible (Salmonella spp. [4]; Salmonella spp. (n = 106)): 99%
MIC50 (Salmonella spp. [4]; Salmonella spp. (n = 106)): 0.06 µg/mL (≈ 0.167 µM)
MIC90 (Salmonella spp. [4]; Salmonella spp. (n = 106)): 0.25 µg/mL (≈ 0.696 µM)
MIC Range (Salmonella spp. [4]; Salmonella spp. (n = 106)): 0.03 to 2 µg/mL
MIC (Salmonella spp. [4]; Salmonella, S. tshiongwe (n = 1)): 2 µg/mL (≈ 5.56 µM)
MIC50 (Haemophilus influenzae; [10]): ≤ 0.015 µg/mL
MIC Range (Haemophilus influenzae; [10]): ≤0.015 to 0.12 µg/mL
MIC90 (Haemophilus influenzae; [10]): ≤ 0.015 µg/mL
MIC90 (Haemophilus influenzae; β-lactamase negative (234)): ≤ 0.015 µg/mL
MIC90 (Haemophilus influenzae; β-lactamase positive (66)): 0.03 µg/mL (≈ 0.0835 µM)
MIC50 (Pseudomonas aeruginosa): 1 µg/mL (≈ 2.78 µM)
MIC90 (Pseudomonas aeruginosa): > 64 µg/mL
MIC50 (Enterobacter spp.; read-out: MIC50): 0.06 µg/mL (≈ 0.167 µM)
MIC90 (Enterobacter spp.; read-out: MIC90): > 64 µg/mL
MIC Range (Streptococcus pneumoniae [5]; [11]): 0.047-0.5
MIC Range (Streptococcus pneumoniae [5]; [12]): 0.047-1
MIC50 (Streptococcus pneumoniae [5]; [11]): 0.19 µg/mL (≈ 0.529 µM)
MIC90 (Streptococcus pneumoniae [5]; [11]): 0.38 µg/mL (≈ 1.06 µM)
MIC50 (Streptococcus pneumoniae [5]; [12]): 0.19 µg/mL (≈ 0.529 µM)
MIC90 (Streptococcus pneumoniae [5]; [12]): 0.38 µg/mL (≈ 1.06 µM)
MIC distribution (µg/ml) 0.03 (Enterococcus faecium): 0
MIC distribution (µg/ml) 0.06 (Enterococcus faecium): 0
MIC distribution (µg/ml) 0.125 (Enterococcus faecium): 0
MIC distribution (µg/ml) 0.25 (Enterococcus faecium): 2
MIC distribution (µg/ml) 0.5 (Enterococcus faecium): 4
MIC distribution (µg/ml) 1 (Enterococcus faecium): 3
MIC distribution (µg/ml) 2 (Enterococcus faecium): 0
MIC distribution (µg/ml) 4 (Enterococcus faecium): 0
MIC distribution (µg/ml) 8 (Enterococcus faecium): 1
MIC distribution (µg/ml) 16 (Enterococcus faecium): 1
MIC distribution (µg/ml) ≤0.015 (Enterococcus faecium): 0
MIC distribution (µg/ml) ≥32 (Enterococcus faecium): 3
MIC50 (Enterococcus faecium; Enterococcus faecium, n = 14 isolates, read-out: MIC50): 2 µg/mL (≈ 5.56 µM)
MIC90 (Enterococcus faecium; Enterococcus faecium, n = 14 isolates, read-out: MIC90): ≥ 32 µg/mL
MIC (Shigella spp.; 24 h, read-out: MIC (mg/L) Range): 0.015 to 0.03 mg/L (≈ 0.0417 to 0.0835 µM)
MIC (Shigella spp.; read-out: MIC (mg/L) 50%): ≤ 0.015 mg/L
MIC (Shigella spp.; read-out: MIC (mg/L) 90%): 0.03 mg/L (≈ 0.0835 µM)

— patent publication EP1561465A2, “Methods of use of fluoroquinolone compounds against bacteria” (LG Life Sciences, Ltd., priority 1999, dated 2001)
